From US6191144A, “Method of using angiotensin converting enzyme inhibitor to stimulate angiogenesis” (priority 1999, dated 2001)
Entries after “also recorded” stand apart in the source; their conditions may differ.

Legend:
coronary microvessels = details: Greiss reaction (Circulation, 95:176-182); cited from earlier work
B2-receptor = B2-receptor antagonist; cited from earlier work
[1] = system: Angiotensin Converting Enzyme; experiment: Serum ACE activity (Sigma kit, FAPGG substrate) in treated ischemic rabbits; assay type: in vivo, New Zealand White rabbits; details: for residual ACE activity in serum (D14 serum activity/D10 serum activity): D14, 24 hours after injection, daily s.c. captopril 25 mg or quinaprilat 2 mg; for serum ACE activity as percentage of basal value: D40, after 5 days of discontinuation of injections; for serum ACE inhibition at any time: daily s.c. treatment, inferred from 24 hour trough at D14
Procedure: The serum ACE activity in the blood samples obtained from ear vein was determined using a kit obtained from Sigma (St. Louis, Mo.). The procedure used is a spectrophotometric method utilizing the synthetic tripeptide substrate N-[3-(2-furyl)acryloyl]-L-phenylalanylglycylglycine (FAPGG). ACE catalyzes hydrolysis of FAPGG to furylacryloylphenylalanine (FAP) and glycylglycine, which results in a decrease in absorbance at a wavelength of 340 nm. The ACE activity in the sample was determined by comparing the sample reaction rate to that obtained with an ACE calibrator.
The efficiency of the treatment is calculated as the percentage of the D10 serum activity according to the ratio: D14 serum activity/D10 serum activity.
For the latter drug, tablets were daily dissolved in saline serum and the resulting suspension was injected. Acetylcholine chloride, serotonin […] sulfate, and sodium nitroprusside were all purchased from Sigma Chemical Co., St. Louis, Mo.

[2] = system: Angiotensin Converting Enzyme; experiment: Tissue ACE activity in thigh muscle homogenate of treated rabbits; assay type: in vivo, New Zealand White rabbits; details: for mean tissue ACE activity in thigh muscles: additional rabbits treated D10 up to D35; for residual tissue ACE activity, % of non-treated tissue activity: thigh muscle, treated D10 up to D35
Excerpt: Then, they were sacrificed, and muscles harvested for tissue in order to measure tissue ACE activity.
In order to determine the tissue ACE activity, muscles from the additional group were harvested, weighed, and homogenized in PBS. The obtained solution was used as a substrate for the ACE determination kit (Sigma, St. Louis, Mo.), and the result, divided by sample weight, is expressed as international units per gram of tissue (Ul/g).

[3] = system: rabbit ischemic hindlimb model; experiment: Angiographic score of collateral development; details: D40; medial thigh
[4] = system: rabbit ischemic hindlimb model; experiment: Capillary density in ischemic hindlimb muscles; details: D40; medial thigh muscles of ischemic limb
[5] = system: rabbit ischemic hindlimb model; experiment: Lower-limb blood pressure ratio (ischemic/normal limb); assay type: in vivo, New Zealand White rabbits; details: D40
Procedure: (§1) The animal model was a previously described rabbit ischemic hindlimb model (J. Clin. Invest. 93:662-670). […] A longitudinal incision was then performed, extending from the inguinal ligament to a point just proximal to the patella. Through this incision, the femoral artery and each of its branches were dissected free along its entire length. After dissecting the popliteal and saphenous arteries distally, the external iliac artery and all of the above arteries were ligated with 4.0 silk (Ethicon, Sommerville, N.J.). Finally, the femoral artery was completely excised from its proximal origin as a branch of the external iliac artery, to the point distally where it bifurcates to form the saphenous and popliteal arteries. Following excision of the femoral artery, retrograde propagation of thrombus leads to occlusion of the external iliac artery. Blood flow to the ischemic limb consequently becomes dependent upon collateral vessels issuing from the internal iliac artery.
Animals with limb ischemia were randomly divided into 4 groups. […] The ischemic control group consisted of 6 rabbits receiving no medication of any kind.

[6] = system: rabbit ischemic hindlimb model; experiment: Vasomotor reactivity: blood flow ratio in internal iliac artery after vasoactive agents; assay type: in vivo, New Zealand White rabbits; details: D40; for blood flow ratio (stimulated flow/basal flow), acetylcholine: acetylcholine 1.5 μg/min/kg intra-arterial; for blood flow ratio (stimulated flow/basal flow), nitroprusside: nitroprusside 1.5 μg/min/kg intra-arterial; for blood flow ratio (stimulated flow/basal flow), serotonin: serotonin 1.5 μg/min/kg intra-arterial
Procedure: After measurement of lower limb blood pressure, a 3 Fr., end-hole infusion catheter (Tracker-i 8 TM, Target Therapeutics, San Jose, Calif.) was inserted into the left common carotid artery and advanced to the abdominal aorta. A 0.018 inch Doppler guidewire (Cardiometrics, Inc., Mountain View, Calif.) was advanced through the 3 Fr. infusion to the proximal segment of the internal iliac artery supplying the ischemic limb.
Vascular reactivity was assessed in this study measuring the variation of blood flow induced by vasodilators in the internal iliac artery of the ischemic limb. Blood flow was calculated from the Doppler measurements, using the formula QD =(πd^2 /4)(0.5×APV), where QD =Doppler-derived time average flow, d=vessel diameter, and APV=time average of the spectral peak velocity (Am. J Physiol., 1994;267:H1263-H1271). The mean velocity was estimated as 0.5×APV by assuming a time-averaged parabolic velocity profile across the vessel. […] The angiographic diameter of main collateral artery was determined using an automated edge-detection system that has been previously validated in vivo (Am. J Physiol., 1994;267:H1263-H1271). […] Center-lines were traced manually for a 10-mm long segment beginning immediately distal to the tip of the Doppler wire. The contours were subsequently detected automatically on the basis of the weighted sum of first and second derivative functions applied to the digitized brightness information. The vascular diameter was then measured at the site of the Doppler sample volume, i.e., 5 mm distal to the wire tip (Am. J Physiol., 1994;267:H1263-H1271). Cross-sectional area was calculated assuming a circular lumen.
The results of calculation for blood flow are expressed as the ratio of blood flow after vasodilator injection to basal blood flow, measured just before the injection.

[7] = system: rabbit ischemic hindlimb model; details: D40 vs control
Procedure: Angiogenesis following resection of femoral artery was assessed at Day 10 (D10) and D40 post-operatively on functional (blood pressure ratio of ischemic to healthy limb, vasoreactivity and resistance) and morphological (angiography and capillary density) criteria.
as §1, with “Blood flow to the ischemic limb consequently becomes dependent upon collateral vessels issuing from the internal iliac artery.” left out
The four groups were investigated at D10 and D40 post-operatively at which time lower limb blood pressure, vasomotor reactivity, and angiographic score were evaluated. […]

[8] = system: rabbit ischemic hindlimb model; experiment: Vascular resistance ratio at internal iliac artery after vasoactive agents; details: D40
[9] = Day 10 (basal value, before treatment)
[10] = Day 40 (5 days after discontinuation)

| Molecule | NO accumulation (coronary microvessels) | residual ACE activity in serum (D14 serum activity/D10 serum activity) [1] [%] | serum ACE activity as percentage of basal value [1] [%] | Serum ACE Activity [1, 9] [U/L] | Serum ACE Activity ([1]; Day 14 (efficiency value)) [U/L] | Serum ACE Activity [1, 10] [U/L] | serum ACE inhibition at any time [1] | mean tissue ACE activity in thigh muscles [2] [Ul/g] | residual tissue ACE activity, % of non-treated tissue activity [2] [%] | angiographic score [3] [%] | capillary density [4] | ischemic/normal calf systolic blood pressure ratio [5] | blood flow ratio (stimulated flow/basal flow), acetylcholine [6] | blood flow ratio (stimulated flow/basal flow), nitroprusside [6] | blood flow ratio (stimulated flow/basal flow), serotonin [6] | stimulation of angiogenesis (functional and morphological criteria) [7] | vascular resistance ratio (after injection/basal), acetylcholine [8] | vascular resistance ratio (after injection/basal), nitroprusside [8] | vascular resistance ratio (after injection/basal), serotonin [8] | further results |
| --- | --- | --- | --- | --- | --- | --- | --- | --- | --- | --- | --- | --- | --- | --- | --- | --- | --- | --- | --- | --- |
| C[C@H](N[C@@H](CCc1ccccc1)C(=O)O)C(=O)N1CCC[C@H]1C(=O)O [enalaprilat] | promotion of NO accumulation |  |  |  |  |  |  |  |  |  |  |  |  |  |  |  |  |  |  |  |
| NC(N)=NCCC[C@@H](N)C(=O)N[C@@H](CCCN=C(N)N)C(=O)N1CCC[C@H]1C(=O)N1C[C@H](O)C[C@H]1C(=O)NCC(=O)N[C@@H](Cc1cccs1)C(=O)N[C@@H](CO)C(=O)N1Cc2ccccc2C[C@@H]1C(=O)N1[C@H](C(=O)N[C@@H](CCCN=C(N)N)C(=O)O)C[C@@H]2CCCC[C@@H]21 [Icatibant] |  |  |  |  |  |  |  |  |  |  |  |  |  |  |  |  |  |  |  | effect on cardiac capillary length density induced by ACE inhibition (B2-receptor): inhibited |
| C[C@H](CS)C(=O)N1CCC[C@H]1C(=O)O [captopril] | promotion of NO accumulation | 42.54±0.03 | 92.87±0.04 | 55.94 ± 0.75 | 23.92 ± 0.60 | 51.80 ± 0.80 | higher than 50% | 7.65±1.69 | 61 | 35.03±0.02 | 147.2±11.9 /mm^2 |  |  |  |  |  |  |  |  |  |
| VEGF |  |  |  |  |  |  |  |  |  | 50.88±0.04 | 228.8±9.6 /mm^2 | 0.74±0.03 | 2.72±0.22 | 2.66±0.35 | 1.19±0.09 | more developed angiogenesis | 0.35±0.03 | 0.29±0.04 | 0.77±0.04 |  |
| C[C@H](N[C@@H](CCc1ccccc1)C(=O)O)C(=O)N1Cc2ccccc2C[C@H]1C(=O)O [quinaprilat] |  | 41.53±0.02 | 80.71±0.08 | 59.50 ± 1.38 | 24.32 ± 0.46 | 46.40 ± 0.98 | higher than 50% | 1.69±0.70 | 13 | 51.19 | 214.0±6.4 /mm^2 | 0.86±0.03 | 3.06±0.25 | 2.94±0.24 | 1.17±0.08 | more developed angiogenesis; also recorded: improvement; also recorded: stimulates angiogenesis in vivo | 0.32±0.03 | 0.28±0.02 | 0.94±0.06 | Body Weight (Body weight (Table 1); Day 10): 4.19 ± 0.10 kg; Body Weight (Body weight (Table 1); Day 40): 4.54 ± 0.20 kg |
| CCOC(=O)[C@H](CCc1ccccc1)N[C@@H](C)C(=O)N1[C@H](C(=O)O)C[C@@H]2CCC[C@@H]21 [ramipril] | promotion of NO accumulation |  |  |  |  |  |  |  |  |  |  |  |  |  |  |  |  |  |  |  |
